According to the Kinase Knowledgebase extract (Sharma et al. 2016):

Molecular target: CDK2 (UniProt P24941)
Assay: Enzyme Assay
Settings: concentration not given here

Row | Compound | inhibition
1 | CC(=O)N(CC(N)=O)c1sc2c(c1C(N)=O)CCCC2 | 100%
2 | CCCN(CCC)C(=O)[C@H](C)Nc1sc(C(C)c2ccccc2)cc1C(N)=O (some centres not stated) | 100%
3 | Cc1sc(NC(=O)CNc2cccnc2)c(C(N)=O)c1C | 100%
4 | Cc1cccc(C)c1C(=O)Nc1sc(C(C)C)cc1C(N)=O | 100%
5 | CC(c1ccccc1)c1cc(C(N)=O)c(NC(=O)Cc2cn(C)cn2)s1 (configuration not stated) | 100%
6 | COc1ccccc1/C=C\C(=O)Nc1sc(C(C)c2ccccc2)cc1C(N)=O (configuration not stated) | 100%
7 | Cc1sc(NC(=O)c2ccccc2C(F)(F)F)c(C(N)=O)c1C | 100%
8 | NC(=O)c1cc(-c2ccccc2)sc1NC(=O)c1ccccc1Cl | 100%
9 | CCC(NC(=O)CCl)C(=O)Nc1sc(C)c(C)c1C(N)=O (configuration not stated) | 100%
10 | COc1ccc(C(=O)Nc2scc(C)c2C(N)=O)c(OC)c1OC | 100%
11 | CC(C)c1cc(C(N)=O)c(NC(=O)c2cccc(F)c2)s1 | 100%
12 | CC(=O)c1ccccc1C(=O)Nc1sc(-c2ccccc2)cc1C(N)=O | 100%
13 | NC(=O)c1c(NC(=O)c2ccsc2)sc2c1CCCC2 | 100%
14 | CC(C)c1cc(C(N)=O)c(NC(=O)CCc2ccccc2)s1 | 100%
15 | CC(=O)NC(=O)C(CC(C)C)Nc1sc(C(C)c2ccccc2)cc1C(N)=O (configuration not stated) | 100%
16 | Cc1sc(NC(=O)c2cccc(C(F)(F)F)c2)c(C(N)=O)c1C | 100%
17 | Cc1sc(NC(=O)c2ccc(-n3cccc3)cc2)c(C(N)=O)c1C | 100%
18 | NC(=O)c1cc(-c2ccccc2)sc1NC(=O)c1cc2ccccc2o1 | 100%
19 | CN1CCc2c(sc(NC(=O)Cc3c[nH]c4cccc(Cl)c34)c2C(N)=O)C1 | 100%
20 | CN1CCc2c(sc(NC(=O)c3cccc(I)c3)c2C(N)=O)C1 | 100%
21 | NC(=O)c1c(NC(=O)CCCl)sc2c1CCCC2 | 100%
22 | NC(=O)c1cc(-c2ccccc2)sc1NC(=O)/C=C/c1ccsc1 | 100%
23 | NC(=O)c1cc(Cc2ccccc2)sc1-n1cnc2ncnc(C(=O)O)c21 | 100%

Row | Compound | inhibition
24 | CC(C)c1cc(C(N)=O)c(NC(=O)/C=C/c2ccncc2)s1 | 100%
25 | CC(=O)Nc1ccc(C(=O)Nc2sc(C(C)c3ccccc3)cc2C(N)=O)cc1 (configuration not stated) | 100%
26 | CN1CCc2c(sc(NC(=O)CCN3C(=O)c4ccccc4C3=O)c2C(N)=O)C1 | 100%
27 | CC(C)c1cc(C(N)=O)c(NC(=O)C2CCCN2C)s1 (configuration not stated) | 100%
28 | NC(=O)c1cc(Cc2ccccc2)sc1NC(=O)/C(F)=C/c1ccccc1 | 100%
29 | CC(c1ccccc1)c1cc(C(N)=O)c(NC(=O)c2cc3ccccc3s2)s1 (configuration not stated) | 100%
30 | CC(=O)CC(=O)N(CC(N)=O)c1sc(-c2ccccc2)cc1C(N)=O | 100%
31 | CCCN(C(=O)/C=C\C(N)=O)c1sc(-c2ccccc2)cc1C(N)=O | 100%
32 | Cc1cccc(NC(=O)c2ccccc2C(=O)Nc2sc3c(c2C(N)=O)CCN(C)C3)c1 | 100%
33 | NC(=O)c1cc(-c2ccccc2)sc1NC(=O)Cc1cccc(O)c1 | 100%
34 | CC(c1ccccc1)c1cc(C(N)=O)c(NC(=O)c2cccc3c2C(=O)N=N3)s1 (configuration not stated) | 100%
35 | Cc1sc(NC(=O)/C=C/CNC2=CCC(=O)C=C2)c(C(N)=O)c1C | 100%
36 | CN1CCc2c(sc(NC(=O)CCCc3c[nH]c4ccccc34)c2C(N)=O)C1 | 100%
37 | CN1CCc2c(sc(NC(=O)c3cc(O)c4ccc(Br)cc4n3)c2C(N)=O)C1 | 100%
38 | CN1CCc2c(sc(NC(=O)c3cc(O)c4cc(Cl)ccc4n3)c2C(N)=O)C1 | 100%
39 | Cc1sc(NC(=O)c2ccccc2-n2cccc2)c(C(N)=O)c1C | 100%
40 | CC(=O)N(C#N)c1sc2c(c1C(N)=O)CCCC2 | 100%
41 | NC(=O)c1cc(-c2ccccc2)sc1NC(=O)c1ccc2cc[nH]c2c1 | 100%
42 | COc1ccc(C(=O)Nc2sc(Cc3ccccc3)cc2C(N)=O)c(O)c1 | 100%
43 | Cc1c(O)cccc1C(=O)Nc1sc(-c2ccccc2)cc1C(N)=O | 100%
44 | Cc1csc(NC(=O)CCn2ccc3ccccc32)c1C(N)=O | 100%
45 | Cc1csc(NC(=O)CCCCCN2C(=O)C=CC2=O)c1C(N)=O | 100%
46 | Cc1sc(NC(=O)CCCC(=O)c2ccccc2)c(C(N)=O)c1C | 100%

Row | Compound | inhibition
47 | Cc1sc(NC(=O)CCC(=O)c2cccs2)c(C(N)=O)c1C | 100%
48 | NC(=O)c1cc(-c2ccccc2)sc1NC(=O)CC1CCCCCC1 | 100%
49 | Cc1csc(NC(=O)CS(=O)(=O)c2ccccc2)c1C(N)=O | 100%
50 | NC(=O)c1cc(-c2ccccc2)sc1NC(=O)c1cccc(Cl)c1 | 100%
51 | NC(=O)c1c(NC(=O)c2cccc(O)c2)sc2c1CCCC2 | 100%
52 | NC(=O)c1cc(Cc2ccccc2)sc1NC(=O)COc1ccc(O)cc1 | 100%
53 | COc1cc(/C=C\C(=O)Nc2scc(C)c2C(N)=O)cc(OC)c1 | 100%
54 | Cc1csc(NC(=O)CCCc2cccs2)c1C(N)=O | 100%
55 | CC(=O)Nc1ccccc1C(=O)Nc1sc(C(C)c2ccccc2)cc1C(N)=O (configuration not stated) | 100%
56 | NC(=O)c1c(NC(=O)c2cn[nH]c2)sc2c1CCCC2 | 100%
57 | COc1cccc2cc(C(=O)Nc3sc(C)c(C)c3C(N)=O)oc12 | 100%
58 | Cc1cccc(C(=O)Nc2sc3c(c2C(N)=O)CCCC3)c1 | 100%
59 | COc1ccc(C(=O)Nc2sc(-c3ccccc3)cc2C(N)=O)cc1 | 100%
60 | CC(=O)NCCCCCC(=O)Nc1sc(C(C)c2ccccc2)cc1C(N)=O (configuration not stated) | 100%
61 | Cc1ccc(S(=O)(=O)NCC(=O)Nc2sc3c(c2C(N)=O)CCN(C)C3)cc1 | 100%
62 | NC(=O)c1c(NC(=O)c2c[nH]cn2)sc2c1CCCC2 | 100%
63 | CN1CCc2c(sc(NC(=O)Cc3ccccc3I)c2C(N)=O)C1 | 100%
64 | Cc1sc(NC(=O)c2cc(Cl)ccc2Cl)c(C(N)=O)c1C | 100%
65 | CN1CCc2c(sc(NC(=O)C(Cc3ccccc3)NC(=O)c3ccccc3)c2C(N)=O)C1 (configuration not stated) | 100%
66 | CC(C)c1cc(C(N)=O)c(NC(=O)/C=C/c2cccnc2)s1 | 100%
67 | Cc1ccc(S(=O)(=O)CC(=O)Nc2sc3c(c2C(N)=O)CCN(C)C3)cc1 | 100%
68 | Cc1ccccc1CC(=O)Nc1sc(C(C)C)cc1C(N)=O | 100%
69 | COc1cc(C(=O)Nc2scc(C)c2C(N)=O)cc(OC)c1C | 100%

Row | Compound | inhibition
70 | NC(=O)c1cc(-c2ccccc2)sc1NC(=O)c1ccc(Cl)cc1 | 100%
71 | CC(c1ccccc1)c1cc(C(N)=O)c(NC(=O)CCC(=O)c2ccccc2)s1 (configuration not stated) | 100%
72 | CC(c1ccccc1)c1cc(C(N)=O)c(NC(=O)c2cnnc3ccccc23)s1 (configuration not stated) | 100%
73 | COc1ccc2[nH]c(C)c(CC(=O)Nc3sc4c(c3C(N)=O)CCN(C)C4)c2c1 | 100%
74 | COc1ccccc1C(=O)Nc1sc(-c2ccccc2)cc1C(N)=O | 100%
75 | CC(=O)N1CCC(C(=O)Nc2sc(C(C)c3ccccc3)cc2C(N)=O)CC1 (configuration not stated) | 100%
76 | CCC(=O)C(=O)Nc1sc2c(c1C(N)=O)CCCC2 | 100%
77 | CN1CCc2c(sc(NC(=O)c3ccc(-c4ccc(Cl)cc4)o3)c2C(N)=O)C1 | 100%
78 | CC1NC(=O)NC1CCCCCC(=O)Nc1sc2c(c1C(N)=O)CCN(C)C2 (configuration not stated) | 100%
79 | NC(=O)c1cc(Cc2ccccc2)sc1NC(=O)c1c[nH]c2ccccc12 | 100%
80 | NC(=O)c1c(NC(=O)c2c[nH]nc2N)sc2c1CCCC2 | 100%
81 | NC(=O)c1c(NC(=O)c2ccccc2)sc2c1CCCC2 | 100%
82 | COc1ccc(OC)c(C(=O)Nc2sc(C)c(C)c2C(N)=O)c1 | 100%
83 | Cc1sc(NC(=O)c2nc3ccccc3nc2O)c(C(N)=O)c1C | 100%
84 | NC(=O)c1c(NC(=O)c2ccccn2)sc2c1CCCC2 | 100%
85 | CC(=O)N1CCC(O)C1C(=O)Nc1sc(C(C)c2ccccc2)cc1C(N)=O (configuration not stated) | 100%
86 | Cc1noc(C)c1C(=O)Nc1sc(C(C)C)cc1C(N)=O | 100%
87 | CC(=O)N[C@@H](CC(N)=O)C(=O)Nc1sc(C(C)c2ccccc2)cc1C(N)=O (some centres not stated) | 100%
88 | CC(c1ccccc1)c1cc(C(N)=O)c(NC(=O)c2cn(C)c3ccccc23)s1 (configuration not stated) | 100%
89 | CN1CCc2c(sc(NC(=O)Cc3ccc(I)cc3)c2C(N)=O)C1 | 100%
90 | CC(C)=CC(=O)Nc1sc2c(c1C(N)=O)CCCC2 | 100%
91 | Cc1csc(NC(=O)c2nn(-c3ccccc3)nc2C)c1C(N)=O | 100%
92 | COc1ccc(Cl)cc1C(=O)Nc1sc(C)c(C)c1C(N)=O | 100%
